Results published in article PMC8364340 (Drug Design, Development and Therapy, 2021).

System: STZ-induced diabetic rats
Test: Blood glucose-lowering efficacy in STZ-induced diabetic rats
Assay type: in vivo
Conditions: subcutaneous, 100 nmol/kg, mean ± SD, n=6

Substance: Humulin R: Recombinant Human Insulin Injection (Humulin R, 3mL:300IU), Lilly France
- AUC for Glucose AUC0-24h (glucometer, trapezoidal rule): 10,990 ± 415.5 mg·h/dL
- AUC for Glucose AUC0-1h: 421 ± 20.4 mg·h/dL
- AUC for Glucose AUC0-2h: 724 ± 52.2 mg·h/dL
- AUC for Glucose AUC0-4h: 1328 ± 100.1 mg·h/dL
- AUC for Glucose AUC0-6h: 2156 ± 132.0 mg·h/dL
- AUC for Glucose AUC0-8h: 3092 ± 174.8 mg·h/dL
- AUC for Glucose AUC0-12h: 5070 ± 259.4 mg·h/dL
- AUC for Glucose AUC0-16h: 7146 ± 321.1 mg·h/dL
